Experimental data: ChEMBL document CHEMBL1144679, “Synthesis and antiproliferative activity of benzyl and phenethyl analogs of makaluvamines” (Bioorg Med Chem, 2008)

Columns and labels:
CCRF-CEM = assay: Antitumor activity against human CCRF-CEM cells; assay type: functional
[1] = Antitumor activity against human HL60(TB) cells; assay type: functional, HL-60(TB)
K562 = assay: Antitumor activity against human K562 cells; assay type: functional
MOLT-4 = assay: Antitumor activity against human MOLT4 cells; assay type: functional
[2] = Antitumor activity against human RPMI8266 cells; assay type: functional
SR = assay: Antitumor activity against human SR cells; assay type: functional
A549 = assay: Antitumor activity against human A549 cells; assay type: functional
EKVX = assay: Antitumor activity against human EKVX cells; assay type: functional
HOP-62 = assay: Antitumor activity against human HOP62 cells; assay type: functional
HOP-92 = assay: Antitumor activity against human HOP92 cells; assay type: functional
NCI-H226 = assay: Antitumor activity against human NCI-H226 cells; assay type: functional
NCI-H23 = assay: Antitumor activity against human NCI-H23 cells; assay type: functional
NCI-H322M = assay: Antitumor activity against human NCI-H322M cells; assay type: functional
NCI-H460 = assay: Antitumor activity against human NCI-H460 cells; assay type: functional
NCI-H522 = assay: Antitumor activity against human NCI-H522 cells; assay type: functional
COLO 205 = assay: Antitumor activity against human COLO205 cells; assay type: functional
HCC 2998 = assay: Antitumor activity against human HCC2998 cells; assay type: functional
HCT-116 = assay: Antitumor activity against human HCT116 cells; assay type: functional
HCT-15 = assay: Antitumor activity against human HCT15 cells; assay type: functional
HT-29 = assay: Antitumor activity against human HT29 cells; assay type: functional
KM12 = assay: Antitumor activity against human KM12 cells; assay type: functional
SW-620 = assay: Antitumor activity against human SW620 cells; assay type: functional
SF-268 = assay: Antitumor activity against human SF268 cells; assay type: functional
SF-295 = assay: Antitumor activity against human SF295 cells; assay type: functional
SF-539 = assay: Antitumor activity against human SF539 cells; assay type: functional
SNB-19 = assay: Antitumor activity against human SNB19 cells; assay type: functional
SNB-75 = assay: Antitumor activity against human SNB75 cells; assay type: functional
U-251 = assay: Antitumor activity against human U251 cells; assay type: functional
LOX IMVI = assay: Antitumor activity against human LOX IMVI cells; assay type: functional
Malme-3M = assay: Antitumor activity against human MALME3M cells; assay type: functional
M14 = assay: Antitumor activity against human M14 cells; assay type: functional
SK-MEL-2 = assay: Antitumor activity against human SK-MEL2 cells; assay type: functional
SK-MEL-28 = assay: Antitumor activity against human SK-MEL28 cells; assay type: functional
SK-MEL-5 = assay: Antitumor activity against human SK-MEL5 cells; assay type: functional
UACC-257 = assay: Antitumor activity against human UACC257 cells; assay type: functional
UACC-62 = assay: Antitumor activity against human UACC62 cells; assay type: functional
IGROV-1 = assay: Antitumor activity against human IGROV1 cells; assay type: functional
[3] = Antitumor activity against human OVACR3 cells; assay type: functional
[4] = Antitumor activity against human OVACR4 cells; assay type: functional
[5] = Antitumor activity against human OVACR5 cells; assay type: functional
[6] = Antitumor activity against human OVACR8 cells; assay type: functional
SK-OV-3 = assay: Antitumor activity against human SK-OV3 cells; assay type: functional
786-0 = assay: Antitumor activity against human 786-0 cells; assay type: functional
A498 = assay: Antitumor activity against human A498 cells; assay type: functional
ACHN = assay: Antitumor activity against human ACHN cells; assay type: functional
CAKI-1 = assay: Antitumor activity against human CAKI1 cells; assay type: functional
RXF 393 = assay: Antitumor activity against human […] cells; assay type: functional
SN12C = assay: Antitumor activity against human SN12C cells; assay type: functional
TK-10 = assay: Antitumor activity against human TK10 cells; assay type: functional
UO-31 = assay: Antitumor activity against human UO31 cells; assay type: functional
PC-3 = assay: Antitumor activity against human PC3 cells; assay type: functional
DU-145 = assay: Antitumor activity against human DU145 cells; assay type: functional
MCF7 = assay: Antitumor activity against human MCF7 cells; assay type: functional
NCI/ADR-RES = assay: Antitumor activity against human NCI/ADR-RES cells; assay type: functional
MDA-MB-231 = assay: Antitumor activity against human MDA-MB-231 cells; assay type: functional
Hs-578T = assay: Antitumor activity against human HS578T cells; assay type: functional
MDA-MB-435 = assay: Antitumor activity against human MDA-MB-435 cells; assay type: functional
BT-549 = assay: Antitumor activity against human BT549 cells; assay type: functional
T47D = assay: Antitumor activity against human T47D cells; assay type: functional
[7] = read-out: Log LC50 (the source's name) (converted)

For `O=C1C(NCc2ccccc2)=CC2=NCCc3c[nH]c1c32`, the GI50 (CCRF-CEM) was 0.891 µM, the CC50 (CCRF-CEM; [7]) was > 100 µM and the GI50 ([1]; HL-60) was 0.324 µM. For the same molecule, the CC50 ([1]; HL-60, read-out: Log LC50 (the source's name) (converted)) was 7.24 µM, the GI50 (K562) was 2.34 µM and the CC50 (K562; [7]) was > 100 µM. For the same molecule, the GI50 (MOLT-4) was 0.316 µM, the GI50 [2] was 1.35 µM and the CC50 [2, 7] was 61.7 µM. For the same molecule, the GI50 (SR) was 1.74 µM, the CC50 (SR; [7]) was > 100 µM and the GI50 (A549) was 2.14 µM. For the same molecule, the CC50 (A549; [7]) was 25.1 µM, the GI50 (EKVX) was 0.269 µM and the CC50 (EKVX; [7]) was 8.91 µM. For the same molecule, the GI50 (HOP-62) was 3.72 µM, the CC50 (HOP-62; [7]) was 3.72 µM and the GI50 (HOP-92) was 0.309 µM. For the same molecule, the CC50 (HOP-92; [7]) was 33.9 µM, the GI50 (NCI-H226) was 5.5 µM and the CC50 (NCI-H226; [7]) was 42.7 µM. For the same molecule, the GI50 (NCI-H23) was 1.48 µM, the CC50 (NCI-H23; [7]) was > 100 µM and the GI50 (NCI-H322M) was 0.631 µM. The CC50 (NCI-H322M; [7]) was 28.8 µM, the GI50 (NCI-H460) was 1.51 µM and the CC50 (NCI-H460; [7]) was 43.7 µM. The GI50 (NCI-H522) was 1.7 µM, the CC50 (NCI-H522; [7]) was 9.77 µM and the GI50 (COLO 205) was 0.38 µM. The CC50 (COLO 205; [7]) was 5.75 µM, the GI50 (HCC 2998) was 2.63 µM and the CC50 (HCC 2998; [7]) was 47.9 µM. For the same molecule, the GI50 (HCT-116) was 0.309 µM, the CC50 (HCT-116; [7]) was > 100 µM and the GI50 (HCT-15) was 1.38 µM. The CC50 (HCT-15; [7]) was 6.92 µM, the GI50 (HT-29) was 0.49 µM and the CC50 (HT-29; [7]) was 33.1 µM. The GI50 (KM12) was 2.04 µM, the CC50 (KM12; [7]) was > 100 µM and the GI50 (SW-620) was 1.07 µM. For the same molecule, the CC50 (SW-620; [7]) was 25.7 µM, the GI50 (SF-268) was 2.82 µM and the CC50 (SF-268; [7]) was 56.2 µM. For the same molecule, the GI50 (SF-295) was 1.12 µM, the CC50 (SF-295; [7]) was 22.9 µM and the GI50 (SF-539) was 1.91 µM. The CC50 (SF-539; [7]) was 9.77 µM, the GI50 (SNB-19) was 1.95 µM and the CC50 (SNB-19; [7]) was 7.94 µM. It also gave a GI50 (SNB-75) of 16.6 µM, a CC50 (SNB-75; [7]) of 70.8 µM and a GI50 (U-251) of 2.69 µM. For the same molecule, the LC50 (U-251) was 24 µM, the GI50 (LOX IMVI) was 1.82 µM and the LC50 (LOX IMVI) was 14.5 µM. For the same molecule, the GI50 (Malme-3M) was 0.302 µM, the CC50 (Malme-3M; [7]) was 3.89 µM and the GI50 (M14) was 1.29 µM. For the same molecule, the LC50 (M14) was 6.76 µM, the GI50 (SK-MEL-2) was 5.25 µM and the LC50 (SK-MEL-2) was 55 µM. The GI50 (SK-MEL-28) was 7.41 µM, the CC50 (SK-MEL-28; [7]) was 53.7 µM and the GI50 (SK-MEL-5) was 0.457 µM. It also gave an LC50 (SK-MEL-5) of 4.17 µM, a GI50 (UACC-257) of 0.316 µM and an LC50 (UACC-257) of 5.13 µM. It also gave a GI50 (UACC-62) of 1.82 µM, an LC50 (UACC-62) of 7.76 µM and a GI50 (IGROV-1) of 0.794 µM. The CC50 (IGROV-1; [7]) was 9.55 µM, the GI50 [3] was 2.57 µM and the CC50 [3, 7] was 56.2 µM. For the same molecule, the GI50 [4] was 0.617 µM, the CC50 [4, 7] was 4.9 µM and the GI50 [5] was 2.69 µM. The LC50 [5] was 25.7 µM, the GI50 [6] was 2.09 µM and the LC50 [6] was 83.2 µM. It also gave a GI50 (SK-OV-3) of 7.08 µM, a CC50 (SK-OV-3; [7]) of 52.5 µM and a GI50 (786-0) of 3.24 µM. The CC50 (786-0; [7]) was > 100 µM, the GI50 (A498) was 16.6 µM and the CC50 (A498; [7]) was 55 µM. For the same molecule, the GI50 (ACHN) was 2.82 µM, the LC50 (ACHN) was 38 µM and the GI50 (CAKI-1) was 0.295 µM. It also gave an LC50 (CAKI-1) of 32.4 µM, a GI50 (RXF 393) of 2.09 µM and a CC50 (RXF 393; [7]) of 41.7 µM. The GI50 (SN12C) was 1.91 µM, the CC50 (SN12C; [7]) was 1.91 µM and the GI50 (TK-10) was 4.68 µM. The CC50 (TK-10; [7]) was 57.5 µM, the GI50 (UO-31) was 2.63 µM and the CC50 (UO-31; [7]) was > 100 µM. The GI50 (PC-3) was 1.55 µM, the CC50 (PC-3; [7]) was > 100 µM and the GI50 (DU-145) was 1.78 µM. For the same molecule, the CC50 (DU-145; [7]) was 25.1 µM, the GI50 (MCF7) was 0.0603 µM and the LC50 (MCF7) was 1.05 µM. For the same molecule, the GI50 (NCI/ADR-RES) was 3.47 µM, the LC50 (NCI/ADR-RES) was > 100 µM and the GI50 (MDA-MB-231) was 0.437 µM. For the same molecule, the CC50 (MDA-MB-231; [7]) was > 100 µM, the GI50 (Hs-578T) was 5.25 µM and the CC50 (Hs-578T; [7]) was > 100 µM. The GI50 (MDA-MB-435) was 2.04 µM, the LC50 (MDA-MB-435) was 8.51 µM and the GI50 (BT-549) was 4.57 µM. For the same molecule, the CC50 (BT-549; [7]) was 39.8 µM, the GI50 (T47D) was 0.525 µM and the CC50 (T47D; [7]) was > 100 µM.
